What was measured:
[1] = test system: MG-63 osteoblast cells; assay: MTT-based proliferation assay, osteoblast cells; type: cell-based, human
Description: (§1) Human osteoblast MG-63 cells and HS-883 osteoclast cells were treated with IP6 in vitro and their abilities to proliferate and differentiate were evaluated by MTT-based cytotoxicity assay (for proliferation) and alkaline phosphatase (ALP) and matrixmetalloproteinase-2 (MMP-2), activity for differentiation of bone cells.
(§2) In an additional study, osteoblast MG-63 human osteosarcoma cells and osteoclast HS-883.T human bone giant sarcoma cells were cultured in Eagle's Minimum Essential Medium, in Eagle's Balanced Salt Solution with non-essential amino-acids and Dulbecco's Modified Eagles Medium, respectively. Both media were supplemented with 10% fetal bovine serum (FBS) and L-glutamine. Additionally, 1 mM of sodium pyruvate was added to culture media for MG-63 cells.
(§3) Stock solution of 100 mM Na-IP6 was prepared in distilled water, pH adjusted to 7.4, and diluted as needed in culture media.
(§4) Cell growth and proliferation were determined with the MTT-based cytotoxicity assay. Briefly, the MG-63 and HS-883.T cell lines were seeded into 96-well plates at a density 2000 cells per well. […] Cells were allowed to proliferate for 24 or 72 hours. 100 μL of MTT solution at concentration I mg/ml was added at the end of proliferation period to each well and allowed to incubate for 4 hours. The formazan product of MTT reduction was dissolved by adding 150 μL of DMSO. Immediately after, growth changes were evaluated by recording the reduction of MTT at 540 nm in a plate reader using data reduction software for measurement of optical density.

[2] = test system: matrix metalloproteinase-2 (MMP-2); assay: MMP-2 (gelatinase A) zymography, culture media of osteoblast cells; type: cell-based, human; conditions: for activity of gelatinase A in culture media: osteoblast cells
Description: as §1, with “cells. IP6 activates ALP and MMP-2 expression in osteoblast cells, indicating their better ability to lay new bone.” for “cells.”
(§5) To study the osteoblast and osteoclast differentiation in the presence of IP6, the following markers were evaluated: alkaline phosphatase (ALP), matrix metalloproteinase-2 (MMP-2) and tartrate-resistant acid phosphatase (TRAP).
(§6) To evaluate MMPs activity in culture medium zymography was performed. Cells were plated in tissue culture dishes, allowed to grow to 60 -70% confluence and then were treated with different concentrations of IP6 in serum free media. After 48 hours conditioned media was collected and immediately analyzed for matrix metalloproteinase activity. 10% Polyacrilamide gels were used to perform electrophoresis, following which gels were incubated in renaturating buffer for 30 minutes with gentle agitation. Incubation was continued in developing buffer overnight at 37° C. At the end of incubation time gels were stained with Comassie blue staining solution for 10 minutes, rinsed with destaining solution one (9.2% acetic acid, 45.4% methanol) and incubated with destaining solution two (10% acetic acid and 10% methanol) at room temperature as needed. Proteinase activity was measured using UN-SCAN-IT gel digitizing software for Windows and expressed as percentage according to the amount of determined Pixel average for each band.

[3] = test system: HS-883 osteoclast cells; assay: MTT-based proliferation assay, osteoclast cells; type: cell-based, human
Description: as §1, §2, §3, §4

[4] = Enamel dissolution (weight loss of enamel) in soft drinks with or without phytic acid; set-up: species or system human; conditions: for effect on enamel dissolution: addition of 1% phytic acid (FIG. 10)
Description: For instance, studies were performed on sections of enamel removed from extracted human teeth as well as on extracted human teeth that were coated such that only the crown of the tooth (the enamel portion) was exposed to the beverage. […] These enamel specimens were immersed in the various soft drinks with or without additions of 0.5 and 1.0% by weight of dodecasodium salt of phytic acid (Inositol hexaphosphoric acid). The enamel dissolution was determined as the weight loss of the enamel at different time intervals in the untreated and treated beverages, as shown in FIGS. 7 and 8.

[5] = Effect of IP6 and inositol additions on % TA of soft drinks; type: physicochemical
Description: Titratable (total) acidity measures the total or potential acidity and indicates the total number of acid molecules, whereas a pH measurement represents the hydrogen ion concentration. The titratable acidity (as % citric acid) is calculated by titrating the beverage against sodium hydroxide (NaOH) solution to pH 8.2 and using the following relationship: [formula] in accordance with the standard procedures for determining the titratable acidity of a variety of fluids, including milk.

[6] = test system: matrix metalloproteinase-2 (MMP-2); assay: MMP-2 zymography, culture media of osteoclast cells; type: cell-based, human; conditions: 100 and 300 μM of IP6
Description: as §5, §6

[7] = test system: alkaline phosphatase (ALP); assay: ALP activity in osteoblast cells (differentiation marker); type: cell-based, human; conditions: MG-63 cells
Description: as §1, with “cells. IP6 activates ALP and MMP-2 expression in osteoblast cells, indicating their better ability to lay new bone.” for “cells.”
as §5
ALP activity was measured using a commercially available kit. Osteoblast cells were plated in tissue culture dishes in amount of 4×10^5 cells per plate. […] Incubation was stopped on ice; cells were washed twice with PBS and lysed with 0.25% of Triton X-100. 25 μL of lysate was mixed with 2.5 mL of ALP sample buffer, incubated for 4 or 24 hours in room temperature and absorption was read in a plate reader at λ405 nm.

Q: With `C[C@]12CCC(=O)C=C1CC[C@@H]1[C@@H]2[C@@H](O)C[C@@]2(C)[C@H]1CC[C@]2(O)C(=O)CO` [Hydrocortisone, hydrocortisone, reference compound] as the compound, how does the “reduction of the number of osteoblast cells” value ([1]; 10 μM hydrocortisone, p < 0.05) read?
A: Its value is 30.5%.

Q: With `O=P(O)(O)O[C@H]1[C@H](OP(=O)(O)O)[C@@H](OP(=O)(O)O)[C@H](OP(=O)(O)O)[C@@H](OP(=O)(O)O)[C@H]1OP(=O)(O)O` [IP6, inositol hexaphosphate] as the compound, how does the “MMP-2 expression in osteoblast cells” value ([2]; MG-63 cells) read?
A: Its value is “activates”.

Q: What about the “activity of gelatinase A in culture media” value ([2]; 300 μM of IP6) of the same compound?
A: The value was “Significant increase of activity”.

Q: And the “activity of gelatinase A in culture media” value ([2]; IP6 50 to 300 μM, 48 hours)?
A: Its value is “increased the activity of gelatinase A”.

Q: What about the “absorbance at 540 nm (MTT), mean ± SD” value ([3]; 300 μM Na-IP6 + 70 μM inositol with 10 μM hydrocortisone) of the same compound?
A: The value was 0.45 ± 0.02.

Q: What about the “absorbance at 540 nm (MTT), mean ± SD” value ([3]; 300 μM Na-IP6 + 70 μM inositol, no hydrocortisone (control 0.52 ± 0.01)) of the same compound?
A: Its value is 0.34 ± 0.02.

Q: What about the “proliferation of osteoclast cells” value ([3]; in vitro IP6 treatment) of the same compound?
A: Its value is “suppresses the proliferation”.

Q: What about the “effect on enamel dissolution” value ([4]; 5% lemon juice) of the same compound?
A: The value was “reduction in enamel dissolution”.

Q: What about the “effect on enamel erosivity” value ([4]; Mountain Dew beverage (FIG. 7)) of the same compound?
A: Its value is “reducing enamel erosivity”.

Q: What about the “effect on enamel dissolution” value ([4]; Mountain Dew) of the same compound?
A: The value was “reduction in enamel dissolution”.

Q: What about the “effect on enamel erosivity” value ([4]; Red Bull beverage (FIG. 8)) of the same compound?
A: Its value is “reducing enamel erosivity”.

Q: And the “absorbance at 540 nM (MTT), mean ± SD” value ([1]; Na-IP6 50 μM + 70 μM inositol with 10 μM hydrocortisone)?
A: Its value is 1.73 ± 0.03.

Q: What about the “absorbance at 540 nM (MTT), mean ± SD” value ([1]; Na-IP6 50 μM + 70 μM inositol, no hydrocortisone (control 1.54 ± 0.12)) of the same compound?
A: Its value is 1.69 ± 0.09.

Q: What about the “effect on hydrocortisone suppression of osteoblast growth/proliferation” value ([1]; with 10 μM hydrocortisone, 50-300 μM sodium salt of IP6 and 70 μM inositol) of the same compound?
A: The value was “opposes the negative effect of hydrocortisone”.

Q: And the “effect on titratable acidity” value ([5]; Fresca, 0.5% addition (FIG. 9))?
A: Its value is “reduction in titratable acidity”.

Q: What about the “effect on titratable acidity” value ([5]; Mountain Dew, 1.0% addition (FIG. 9)) of the same compound?
A: The value was “reduction in titratable acidity”.

Q: And the “effect on titratable acidity” value ([5]; Sprite, 0.5% addition (FIG. 9))?
A: Its value is “reduction in titratable acidity”.

Q: And the “pro-MMP-2 and MMP-2 activity” value [6]?
A: The value was “decrease”.

Q: What about the “ALP activity/expression in osteoblast cells” value [7] of the same compound?
A: Its value is “activates”.

Q: Which “% TA” value ([5]; Fresca, after addition of 0.5 g Ca-Mg IP6 + Inositol or 1 g Na-IP6 (beverage alone 0.46)) does the source give for `O=P([O-])([O-])O[C@H]1[C@H](OP(=O)([O-])O)[C@H](OP(=O)([O-])[O-])[C@H](OP(=O)([O-])O)[C@@H](OP(=O)([O-])[O-])[C@@H]1OP(=O)([O-])O.[Na+].[Na+].[Na+].[Na+].[Na+].[Na+].[Na+].[Na+].[Na+]` [Na-IP6, dodecasodium inositol hexaphosphate] here?
A: The value was 0.0%.

Q: And the “% TA” value ([5]; Red Bull, after addition of 0.5 g Ca-Mg IP6 + Inositol or 1 g Na-IP6 (beverage alone 1.04))?
A: Its value is 0.22%.

From patent US20070212449A1, “Reduction of the titratable acidity and the prevention of tooth and other bone degeneration” (priority 2006, published 2007)
